According to patent US5061689A, “Zinc bacitracin containing wound dressing” (Bioderm, Inc., priority 1986, dated 1991):

Key:
epidermal wounds = assay: Effect of bacitracin zinc impregnated foam dressing on epidermal wound healing (Example I); format: in vivo, white Yorkshire pigs; settings: for HT50 (time in days for 50% of wounds to be completely healed): probit analysis
Source text: (§1) To test the effect of bacitracin zinc on epidermal resurfacing, approximately 60 rectangular wounds measuring 7 mm wide, 10 mm long, and 0.5 mm deep were made in each of eighteen white Yorkshire pigs in the paravertebral and thoracic areas with a Castroviejo keratome. The electrokeratome was fitted with a razor blade modified so that the cutting edge was reduced to 7 mm. The wounds were separated from one another by at least 15 mm of normal skin.
On each of the experimental animals, approximately one third of the wounds were assigned to one of three treatment groups: (1) control (no treatment), (2) vehicle alone, (low melting point petrolatum 3.0 g) or (3) bacitracin zinc (either 1%, 2.5%, 5%, 7%, 10% or 20% in 3.0 g). A total of 99 wounds on 3 pigs were treated with each of the varying bacitracin zinc combinations. Vehicle was applied to 594 wounds in 18 animals. The other 594 wounds were the untreated controls.
(§2) The bacitracin zinc was applied in impregnated foam shortly (within 5 minutes) after wounding on day 0 and once daily thereafter for 7 days. In order to rule out the possibility that wounds made in different anatomical regions heal at different rates the regions used for each treatment group varied for each animal.
(§3) Two days after wounding and each day thereafter some of the wounds with surrounding normal skin were excised from each treatment group. The excisions were made with a Castroviejo keratome fitted with a 22 mm blade, set to cut at a depth of 0.7 mm. After incubating the specimens in 2N sodium bromide at 37° C. for three hours, the epidermis was separated from the dermis and the epidermal sheet (22 sq mm) was assessed for re-epithelialization as previously described. Briefly, this method is a macroscopic examination of the separated epidermis for defects. Defects are visualized as holes in the separated epidermal sheet or as a lack of epidermal continuum in the area that contain the wound. The wound is considered re-epithelialized if there are no defects in the epidermis and not re-epithelialized if there are one or more defects.
The time needed for 50% of the wounds in each experimental animal to heal HT50) has been estimated from curves generated by probit analysis of the data presented in Table I. The HT50 values and the relative rate of healing are compared in Table II. Wounds treated with 7% bacitracin zinc healed 46% more rapidly than untreated wounds and 28% faster than wounds treated with the ointment alone. Vehicle treated wounds healed approximately 25% faster than wounds left open to the air.

[1] = system: deep partial thickness wounds; assay: 7% bacitracin zinc ointment with and without polyurethane occlusion, healing of deep partial thickness wounds (Example II); format: in vivo, white Yorkshire pigs
Source text: as §1, §2, §3
Further tests were conducted to determine the effect of bacitracin zinc covered with an occlusive film. The wounds in these were treated according to one of four treatment regiments: (1) untreated; (2) polyurethane film; (3) 7% bacitracin zinc ointment, and (4) 7% bacitracin zinc ointment plus polyurethane film. The methodology employed was substantially the same as in Example I.

[2] = bacitracin zinc as 7% ointment, listed as BAC. ZN

bacitracin zinc
rate of healing Compared with Untreated (epidermal wounds; 1% bacitracin zinc): +23% | rate of healing Compared with Vehicle (epidermal wounds; 1% bacitracin zinc): 0% | % of wounds healed (epidermal wounds; 1% bacitracin zinc in impregnated foam, day 2 after wounding): 0% | % of wounds healed (epidermal wounds; 1% bacitracin zinc in impregnated foam, day 3 after wounding): 0% | % of wounds healed (epidermal wounds; 1% bacitracin zinc in impregnated foam, day 4 after wounding): 40% | % of wounds healed (epidermal wounds; 1% bacitracin zinc in impregnated foam, day 5 after wounding): 58% | % of wounds healed (epidermal wounds; 1% bacitracin zinc in impregnated foam, day 6 after wounding): 95% | % of wounds healed (epidermal wounds; 1% bacitracin zinc in impregnated foam, day 7 after wounding): 100% | HT50 (time in days for 50% of wounds to be completely healed) (epidermal wounds; 1% bacitracin zinc): 4.5 days | rate of healing Compared with Untreated (epidermal wounds; 2.5% bacitracin zinc): +25% | rate of healing Compared with Vehicle (epidermal wounds; 2.5% bacitracin zinc): 2% | % of wounds healed (epidermal wounds; 2.5% bacitracin zinc in impregnated foam, day 2 after wounding): 0% | % of wounds healed (epidermal wounds; 2.5% bacitracin zinc in impregnated foam, day 3 after wounding): 0% | % of wounds healed (epidermal wounds; 2.5% bacitracin zinc in impregnated foam, day 4 after wounding): 36% | % of wounds healed (epidermal wounds; 2.5% bacitracin zinc in impregnated foam, day 5 after wounding): 60% | % of wounds healed (epidermal wounds; 2.5% bacitracin zinc in impregnated foam, day 6 after wounding): 96% | % of wounds healed (epidermal wounds; 2.5% bacitracin zinc in impregnated foam, day 7 after wounding): 100% | HT50 (time in days for 50% of wounds to be completely healed) (epidermal wounds; 2.5% bacitracin zinc): 4.4 days | rate of healing Compared with Untreated (epidermal wounds; 5.0% bacitracin zinc): +34% | rate of healing Compared with Vehicle (epidermal wounds; 5.0% bacitracin zinc): 13% | % of wounds healed (epidermal wounds; 5.0% bacitracin zinc in impregnated foam, day 2 after wounding): 0% | % of wounds healed (epidermal wounds; 5.0% bacitracin zinc in impregnated foam, day 3 after wounding): 11% | % of wounds healed (epidermal wounds; 5.0% bacitracin zinc in impregnated foam, day 4 after wounding): 54% | % of wounds healed (epidermal wounds; 5.0% bacitracin zinc in impregnated foam, day 5 after wounding): 77% | % of wounds healed (epidermal wounds; 5.0% bacitracin zinc in impregnated foam, day 6 after wounding): 95% | % of wounds healed (epidermal wounds; 5.0% bacitracin zinc in impregnated foam, day 7 after wounding): 100% | HT50 (time in days for 50% of wounds to be completely healed) (epidermal wounds; 5.0% bacitracin zinc): 3.9 days | rate of wound re-epithelialization compared with both untreated and vehicle treated wounds (epidermal wounds; 7% bacitracin zinc): significantly greater | rate of healing Compared with Untreated (epidermal wounds; 7.0% bacitracin zinc): +46% | rate of healing Compared with Vehicle (epidermal wounds; 7.0% bacitracin zinc): 28% | % of wounds healed (epidermal wounds; 7.0% bacitracin zinc in impregnated foam, day 2 after wounding): 0% | % of wounds healed (epidermal wounds; 7.0% bacitracin zinc in impregnated foam, day 3 after wounding): 36% | % of wounds healed (epidermal wounds; 7.0% bacitracin zinc in impregnated foam, day 4 after wounding): 70% | % of wounds healed (epidermal wounds; 7.0% bacitracin zinc in impregnated foam, day 5 after wounding): 98% | % of wounds healed (epidermal wounds; 7.0% bacitracin zinc in impregnated foam, day 6 after wounding): 100% | % of wounds healed (epidermal wounds; 7.0% bacitracin zinc in impregnated foam, day 7 after wounding): 100% | rate of healing Compared with Untreated (epidermal wounds; 7.0% bacitracin zinc, listed as bacitracin zinc): 46% | HT50 (time in days for 50% of wounds to be completely healed) (epidermal wounds; 7.0% bacitracin zinc): 3.2 days | rate of healing Compared with Untreated (epidermal wounds; 10.0% bacitracin zinc): +19% | rate of healing Compared with Vehicle (epidermal wounds; 10.0% bacitracin zinc): -6% | % of wounds healed (epidermal wounds; 10.0% bacitracin zinc in impregnated foam, day 2 after wounding): 0% | % of wounds healed (epidermal wounds; 10.0% bacitracin zinc in impregnated foam, day 3 after wounding): 2% | % of wounds healed (epidermal wounds; 10.0% bacitracin zinc in impregnated foam, day 4 after wounding): 33% | % of wounds healed (epidermal wounds; 10.0% bacitracin zinc in impregnated foam, day 5 after wounding): 66% | % of wounds healed (epidermal wounds; 10.0% bacitracin zinc in impregnated foam, day 6 after wounding): 92% | % of wounds healed (epidermal wounds; 10.0% bacitracin zinc in impregnated foam, day 7 after wounding): 100% | HT50 (time in days for 50% of wounds to be completely healed) (epidermal wounds; 10.0% bacitracin zinc): 4.8 days | rate of healing Compared with Untreated (epidermal wounds; 20.0% bacitracin zinc): +19% | rate of healing Compared with Vehicle (epidermal wounds; 20.0% bacitracin zinc): -6% | % of wounds healed (epidermal wounds; 20.0% bacitracin zinc in impregnated foam, day 2 after wounding): 0% | % of wounds healed (epidermal wounds; 20.0% bacitracin zinc in impregnated foam, day 3 after wounding): 0% | % of wounds healed (epidermal wounds; 20.0% bacitracin zinc in impregnated foam, day 4 after wounding): 42% | % of wounds healed (epidermal wounds; 20.0% bacitracin zinc in impregnated foam, day 5 after wounding): 58% | % of wounds healed (epidermal wounds; 20.0% bacitracin zinc in impregnated foam, day 6 after wounding): 96% | % of wounds healed (epidermal wounds; 20.0% bacitracin zinc in impregnated foam, day 7 after wounding): 100% | HT50 (time in days for 50% of wounds to be completely healed) (epidermal wounds; 20.0% bacitracin zinc): 4.8 days | effect on healing (epidermal wounds; levels higher than 5% to 8% bacitracin zinc): tend in inhibit rather than promote healing | rate of wound re-epithelialization compared with ointment vehicle treated wounds (epidermal wounds; the other concentrations of bacitracin zinc (1%, 2.5%, 5%, 10%, 20%)): no significant difference | HT50 (time in days for 50% of wounds to be completely healed) ([1]; bacitracin zinc as 7% ointment): 4.1 days | rate of healing COMPARED WITH PU FILM ([1]; bacitracin zinc as 7% ointment): about 4% | rate of healing Compared with Untreated ([1]; bacitracin zinc as 7% ointment): about 24% | rate of healing COMPARED WITH PU FILM [1, 2]: +4% | rate of healing Compared with Untreated [1, 2]: +24% | % of wounds healed ([1]; day 2 after wounding, bacitracin zinc as 7% ointment): 0% | % of wounds healed ([1]; day 3 after wounding, bacitracin zinc as 7% ointment): 19% | % of wounds healed ([1]; day 4 after wounding, bacitracin zinc as 7% ointment): 42% | % of wounds healed ([1]; day 5 after wounding, bacitracin zinc as 7% ointment): 77% | % of wounds healed ([1]; day 6 after wounding, bacitracin zinc as 7% ointment): 92% | % of wounds healed ([1]; day 7 after wounding, bacitracin zinc as 7% ointment): 100% | further enhancement in the rate of healing over bacitracin zinc used alone ([1]; semipermeable occlusive film applied over the bacitracin zinc impregnated pad): 20%
